# Data: patent publication US10414774B2, “Compound useful for altering the levels of bile acids for the treatment of diabetes and cardiometabolc disease” (Merck Sharp & Dohme Corp., priority 2016, dated 2019)
# Biological target: T1, Human CYP8B1 (Homo sapiens, UniProt Q9UNU6)
# T1 sequence (Q9UNU6 1-501): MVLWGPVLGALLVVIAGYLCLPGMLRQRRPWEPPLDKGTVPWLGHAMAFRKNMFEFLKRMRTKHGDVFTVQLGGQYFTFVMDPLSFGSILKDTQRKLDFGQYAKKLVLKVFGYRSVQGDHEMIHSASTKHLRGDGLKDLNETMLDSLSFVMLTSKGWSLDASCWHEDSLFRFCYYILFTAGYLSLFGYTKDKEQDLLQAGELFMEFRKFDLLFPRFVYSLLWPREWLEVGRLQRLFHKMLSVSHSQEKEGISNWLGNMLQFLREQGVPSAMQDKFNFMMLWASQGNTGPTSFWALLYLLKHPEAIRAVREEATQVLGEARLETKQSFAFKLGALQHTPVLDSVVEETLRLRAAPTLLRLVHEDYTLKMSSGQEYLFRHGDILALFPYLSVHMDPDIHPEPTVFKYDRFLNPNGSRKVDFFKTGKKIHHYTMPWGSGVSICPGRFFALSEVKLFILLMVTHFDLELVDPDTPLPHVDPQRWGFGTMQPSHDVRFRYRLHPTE
# Test: Human CYP8B1 Liver Microsome Assay
# Conditions: Human CYP8B1 IC50, human liver microsomes; substrate 7a-hydroxy-4-cholesten-3-one, NADPH; RapidFire MS detection of 7α,12α-dihydroxy-4-cholesten-3-one
row,SMILES,IC50
1,"N#Cc1cnc2cc(C(F)(F)F)ccc2c1N1CCC(C(=O)N2CCn3c(nnc3C(F)(F)F)C2)CC1 [Example 43, 7-(trifluoromethyl)-4-(4-{[3-(trifluoromethyl)-5,6-dihydro[1,2,4]triazolo[4,3-a]pyrazin-7(8H)-yl]carbonyl}piperidin-1-yl)quinoline-3-carbonitrile]",6.3 nM
2,"N#Cc1cnc2ccc(Cl)cc2c1N1CCC(C(=O)N2CCn3c(nnc3C(F)(F)F)C2)CC1 [Example 103, 6-chloro-4-(4-(3-(trifluoromethyl)-5,6,7,8-tetrahydro-[1,2,4]triazolo[4,3-a]pyrazine-7-carbonyl)piperidin-1-yl)quinoline-3-carbonitrile]",23.2 nM
3,"CCc1ncc2n1CCN(C(=O)C1CCN(c3c(C#N)cnc4ccc(Cl)cc34)CC1)C2 [Example 114, 6-chloro-4-{4-[(3-ethyl-5,6-dihydroimidazo[1,5-a]pyrazin-7(8H)-yl)carbonyl]piperidin-1-yl}quinoline-3-carbonitrile]",1220 nM
4,"C[C@@H]1CN(c2c(C#N)cnc3c(F)cc(C4CCC4)cc23)CC[C@@H]1C(=O)N1CCn2c(nnc2C(F)(F)F)C1 [Example 87, 6-cyclobutyl-8-fluoro-4-((3S,4S)-3-methyl-4-(3-(trifluoromethyl)-5,6,7,8-tetrahydro-[1,2,4]triazolo[4,3-a]pyrazine-7-carbonyl)piperidin-1-yl) quinoline-3-carbonitrile]",0.3 nM
5,"C[C@H]1CN(c2c(C#N)c(C(F)F)nc3ccc(Cl)cc23)CC[C@H]1C(=O)N1CCn2c(nnc2C(F)(F)F)C1 (single isomer, unassigned) [Example 57b]",1490 nM
6,"N#Cc1cnc2ccc(Cl)cc2c1N1CC[C@@]2(C(=O)N3CCn4c(nnc4C(F)(F)F)C3)C[C@H]2C1 (single isomer, unassigned) [Example 81b]",1930 nM
7,"Cc1nc2ccc(F)cc2c(N2CCC(C(=O)N3CCn4c(nnc4C(F)(F)F)C3)CC2)c1C#N [Example 45, 6-fluoro-2-methyl-4-(4-(3-(trifluoromethyl)-5,6,7,8-tetrahydro-[1,2,4]triazolo[4,3-a]pyrazine-7-carbonyl)piperidin-1-yl)quinoline-3-carbonitrile]",1150 nM
8,"C[C@@H]1CN(c2c(C#N)cnc3c(F)c(F)c(F)cc23)CC[C@@H]1C(=O)N1CCn2c(nnc2C(F)(F)F)C1 [Example 7, 6,7,8-trifluoro-4-[(3S,4S)-3-methyl-4-{[3-(trifluoromethyl)-5,6-dihydro[1,2,4]triazolo[4,3-a]pyrazin-7(8H)-yl]carbonyl}piperidin-1-yl]quinoline-3-carbonitrile]",1.1 nM
9,"C[C@@H]1CN(c2c(C#N)cnc3c2CCN(C(=O)OC2(C)CC2)C3)CC[C@@H]1C(=O)N1CCn2c(nnc2C2CC2)C1 [Example 85, 1-methylcyclopropyl 3-cyano-4-((3S,4S)-4-(3-cyclopropyl-5,6,7,8-tetrahydro-[1,2,4]triazolo[4,3-a]pyrazine-7-carbonyl)-3-methylpiperidin-1-yl)-5,6-dihydro-1,7-naphthyridine-7(8H)-carboxylate]",2 nM
10,"C[C@@H]1CN(c2c(C#N)cnc3c(C(F)F)cc(Cl)cc23)CC[C@@H]1C(=O)N1CCn2c(nnc2C(F)(F)F)C1 [Example 3, 6-chloro-8-(difluoromethyl)-4-[(3S,4S)-3-methyl-4-{[3-(trifluoromethyl)-5,6-dihydro[1,2,4]triazolo[4,3-a]pyrazin-7(8H)-yl]carbonyl}piperidin-1-yl]quinoline-3-carbonitrile]",21 nM
11,"CC1(C(=O)N2CCn3c(nnc3C(F)(F)F)C2)CCN(c2c(C#N)cnc3ccc(Cl)cc23)CC1 [Example 121, 6-chloro-4-(4-methyl-4-{[3-(trifluoromethyl)-5,6-dihydro[1,2,4]triazolo[4,3-a]pyrazin-7(8H)-yl]carbonyl}piperidin-1-yl)quinoline-3-carbonitrile]",14 nM
12,"COC(=O)c1ccc2nc(C(=O)OC)c(C#N)c(N3CC[C@H](C(=O)N4CCn5c(nnc5C(F)(F)F)C4)[C@H](C)C3)c2c1 [Example 60, dimethyl 3-cyano-4-[(3S,4S)-3-methyl-4-{[3-(trifluoromethyl)-5,6-dihydro[1,2,4]triazolo[4,3-a]pyrazin-7(8H)-yl]carbonyl}piperidin-1-yl]quinoline-2,6-dicarboxylate]",270 nM

# Next, values leading:
row,IC50,SMILES
1,0.49 nM,"C[C@@H]1CN(c2c(C#N)cnc3c(F)cc(F)cc23)CC[C@@H]1C(=O)N1CCn2c(nnc2C(F)(F)F)C1 [Example 26, 6,8-difluoro-4-[(3S,4S)-3-methyl-4-{[3-(trifluoromethyl)-5,6-dihydro[1,2,4]triazolo[4,3-a]pyrazin-7(8H)-yl]carbonyl}piperidin-1-yl]quinoline-3-carbonitrile]"
2,0.89 nM,"COc1ccc2c(N3CC[C@H](C(=O)N4CCn5c(nnc5C(F)(F)F)C4)[C@H](C)C3)c(C#N)c(C)nc2c1 [Example 34, 7-methoxy-2-methyl-4-[(3S,4S)-3-methyl-4-{[3-(trifluoromethyl)-5,6-dihdyro[1,2,4]triazolo[4,3-a]pyrazin-7(8H)-yl]carbonyl}piperidin-1-yl]quinoline-3-carbonitrile]"
3,0.7 nM,"CCOc1ccc2c(N3CC[C@H](C(=O)N4CCn5c(nnc5C(F)(F)F)C4)[C@H](C)C3)c(C#N)cnc2c1 [Example 39, 7-ethoxy-4-[(3S,4S)-3-methyl-4-{[3-(trifluoromethyl)-5,6-dihydro[1,2,4]triazolo[4,3-a]pyrazin-7(8H)-yl]carbonyl}piperidin-1-yl]quinoline-3-carbonitrile]"
4,1.7 nM,"C[C@@H]1CN(c2c(C#N)cnc3c(Cl)cccc23)CC[C@@H]1C(=O)N1CCn2c(nnc2C(F)(F)F)C1 [Example 14, 8-chloro-4-[(3S,4S)-3-methyl-4-{[3-(trifluoromethyl)-5,6-dihydro[1,2,4]triazolo[4,3-a]pyrazin-7(8H)-yl]carbonyl}piperidin-1-yl]quinoline-3-carbonitrile]"
5,0.33 nM,"CC(C)COc1ccc2c(N3CC[C@H](C(=O)N4CCn5c(nnc5C(F)(F)F)C4)[C@H](C)C3)c(C#N)cnc2c1 [Example 101, 7-(2-methylpropoxy)-4-[(3S,4S)-3-methyl-4-{[3-(trifluoromethyl)-5,6-dihydro[1,2,4]triazolo[4,3-a]pyrazin-7(8H)-yl]carbonyl}piperidin-1-yl]quinoline-3-carbonitrile]"
6,0.4 nM,"C[C@@H]1CN(c2c(C#N)cnc3cc(-c4ncco4)ccc23)CC[C@@H]1C(=O)N1CCn2c(nnc2C(F)(F)F)C1 [Example 89, 4-((3S,4S)-3-methyl-4-(3-(trifluoromethyl)-5,6,7,8-tetrahydro-[1,2,4]triazolo[4,3-a]pyrazine-7-carbonyl)piperidin-1-yl)-7-(oxazol-2-yl)quinoline-3-carbonitrile]"
7,2.9 nM,"COc1ccc2nc(C)c(C#N)c(N3CC[C@H](C(=O)N4CCn5c(nnc5C(F)(F)F)C4)[C@H](C)C3)c2c1 [Example 32, 6-methoxy-2-methyl-4-[(3S,4S)-3-methyl-4-{[3-(trifluoromethyl)-5,6-dihydro[1,2,4]triazolo[4,3-a]pyrazin-7(8H)-yl]carbonyl}piperidin-1-yl]quinoline-3-carbonitrile]"
8,3.3 nM,"C[C@@H]1CN(c2c(C#N)cnc3c(Cl)c(F)ccc23)CC[C@@H]1C(=O)N1CCn2c(nnc2C(F)(F)F)C1 [Example 13, 8-chloro-7-fluoro-4-[(3S,4S)-3-methyl-4-{[3-(trifluoromethyl)-5,6-dihdyro[1,2,4]triazolo[4,3-a]pyrazin-7(8H)-yl]carbonyl}piperidin-1-yl]quinoline-3-carbonitrile]"
9,2.6 nM,"C[C@@H]1CN(c2c(C#N)cnc3cnc(F)cc23)CC[C@@H]1C(=O)N1CCn2c(nnc2C(F)(F)F)C1 [Example 31, 6-fluoro-4-[(3S,4S)-3-methyl-4-{[3-(trifluoromethyl)-5,6-dihydro[1,2,4]triazolo[4,3-a]pyrazin-7(8H)-yl]carbonyl}piperidin-1-yl]-1,7-naphthyridine-3-carbonitrile]"
10,1 nM,"C[C@@H]1CN(c2c(C#N)cnc3c(F)c(Cl)c(F)cc23)CC[C@@H]1C(=O)N1CCn2c(nnc2C(F)(F)F)C1 [Example 15, 7-chloro-6,8-difluoro-4-[(3S,4S)-3-methyl-4-{[3-(trifluoromethyl)-5,6-dihdyro[1,2,4]triazolo[4,3-a]pyrazin-7(8H)-yl]carobnyl}piperidin-1-yl]quinoline-3-carbonitrile]"
11,0.51 nM,"COc1ccc2ncc(C#N)c(N3CC[C@H](C(=O)N4CCn5c(nnc5C(F)(F)F)C4)[C@H](C)C3)c2c1 [Example 9, 6-methoxy-4-[(3S,4S)-3-methyl-4-{[3-(trifluoromethyl)-5,6-dihydro[1,2,4]triazolo[4,3-a]pyrazin-7(8H)-yl]carbonyl}piperidin-1-yl]quinoline-3-carbonitrile]"

# Same assay, conditions: read-out: Human CYP8B1 IC50; human liver microsomes; substrate 7a-hydroxy-4-cholesten-3-one, NADPH; RapidFire MS detection of 7α,12α-dihydroxy-4-cholesten-3-one
row,SMILES,IC50
1,"C[C@H]1CN(c2c(C#N)cnc3ccc(C(F)(F)F)cc23)CC[C@H]1C(=O)N1CCn2c(nnc2C(F)(F)F)C1 (single isomer, unassigned) [Example 119b]",0.3 nM
2,"C[C@@H]1CN(c2c(C#N)cnc3ccc(C(F)(F)F)cc23)CC[C@@H]1C(=O)N1CCn2c(nnc2C(F)(F)F)C1 (single isomer, unassigned) [Example 119a]",41.4 nM
